Reference: ChEMBL document CHEMBL1909046, “DrugMatrix in vitro pharmacology data”

What was measured:
[1] = biological target: Melanocortin receptor 5 (Homo sapiens, UniProt P33032); assay type: cell membranes, HEK293, Membrane; further: in other assays of this panel Not Active means under 50% inhibition at 10 µM
[2] = biological target: Cannabinoid receptor 1 (Homo sapiens, UniProt P21554); assay type: cell membranes, Membrane; settings: chem-1; further: in other assays of this panel Not Active means under 50% inhibition at 10 µM
Chain of Cannabinoid receptor 1 (P21554 whole entry): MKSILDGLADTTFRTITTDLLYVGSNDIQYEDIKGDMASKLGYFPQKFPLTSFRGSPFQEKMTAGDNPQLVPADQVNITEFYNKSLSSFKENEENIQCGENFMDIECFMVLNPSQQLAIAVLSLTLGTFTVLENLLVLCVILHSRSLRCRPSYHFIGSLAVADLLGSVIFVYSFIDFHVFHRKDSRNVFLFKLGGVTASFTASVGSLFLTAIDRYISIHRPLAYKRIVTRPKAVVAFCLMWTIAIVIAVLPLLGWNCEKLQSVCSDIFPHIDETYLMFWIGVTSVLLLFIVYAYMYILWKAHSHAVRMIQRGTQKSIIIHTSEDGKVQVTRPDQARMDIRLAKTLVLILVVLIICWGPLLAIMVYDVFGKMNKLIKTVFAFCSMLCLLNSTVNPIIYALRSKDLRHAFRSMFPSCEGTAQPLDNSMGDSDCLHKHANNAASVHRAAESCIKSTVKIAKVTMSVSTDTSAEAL

[3] = biological target: T1, Alpha-2C adrenergic receptor (Homo sapiens, UniProt P18825); assay: DRUGMATRIX: Adrenergic Alpha-2C radioligand binding (ligand: [3H] MK-912); assay type: cell membranes, Sf9, Membrane; on IC50: call rule not given here
T1 sequence (P18825 whole entry): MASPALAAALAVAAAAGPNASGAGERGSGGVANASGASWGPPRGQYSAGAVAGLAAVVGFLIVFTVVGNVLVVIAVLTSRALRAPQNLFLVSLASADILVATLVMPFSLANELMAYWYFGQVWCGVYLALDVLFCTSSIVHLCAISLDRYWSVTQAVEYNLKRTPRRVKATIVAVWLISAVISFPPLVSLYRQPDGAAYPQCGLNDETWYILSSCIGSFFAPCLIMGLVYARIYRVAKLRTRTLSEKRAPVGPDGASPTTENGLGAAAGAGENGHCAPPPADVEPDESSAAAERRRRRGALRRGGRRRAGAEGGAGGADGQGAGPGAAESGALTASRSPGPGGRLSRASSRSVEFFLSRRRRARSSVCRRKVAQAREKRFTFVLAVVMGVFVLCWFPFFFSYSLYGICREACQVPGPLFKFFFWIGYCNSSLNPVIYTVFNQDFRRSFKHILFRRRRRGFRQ

[4] = biological target: T2, Angiotensin-converting enzyme (Oryctolagus cuniculus, UniProt P12822); assay type: tissue-based, Lung;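 further: enzymatic inhibition of angiotensin-converting enzyme measured with FAPGG as the substrate; in other assays of this panel Not Active means under 50% inhibition at 10 µM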
T2 sequence (P12822 whole entry): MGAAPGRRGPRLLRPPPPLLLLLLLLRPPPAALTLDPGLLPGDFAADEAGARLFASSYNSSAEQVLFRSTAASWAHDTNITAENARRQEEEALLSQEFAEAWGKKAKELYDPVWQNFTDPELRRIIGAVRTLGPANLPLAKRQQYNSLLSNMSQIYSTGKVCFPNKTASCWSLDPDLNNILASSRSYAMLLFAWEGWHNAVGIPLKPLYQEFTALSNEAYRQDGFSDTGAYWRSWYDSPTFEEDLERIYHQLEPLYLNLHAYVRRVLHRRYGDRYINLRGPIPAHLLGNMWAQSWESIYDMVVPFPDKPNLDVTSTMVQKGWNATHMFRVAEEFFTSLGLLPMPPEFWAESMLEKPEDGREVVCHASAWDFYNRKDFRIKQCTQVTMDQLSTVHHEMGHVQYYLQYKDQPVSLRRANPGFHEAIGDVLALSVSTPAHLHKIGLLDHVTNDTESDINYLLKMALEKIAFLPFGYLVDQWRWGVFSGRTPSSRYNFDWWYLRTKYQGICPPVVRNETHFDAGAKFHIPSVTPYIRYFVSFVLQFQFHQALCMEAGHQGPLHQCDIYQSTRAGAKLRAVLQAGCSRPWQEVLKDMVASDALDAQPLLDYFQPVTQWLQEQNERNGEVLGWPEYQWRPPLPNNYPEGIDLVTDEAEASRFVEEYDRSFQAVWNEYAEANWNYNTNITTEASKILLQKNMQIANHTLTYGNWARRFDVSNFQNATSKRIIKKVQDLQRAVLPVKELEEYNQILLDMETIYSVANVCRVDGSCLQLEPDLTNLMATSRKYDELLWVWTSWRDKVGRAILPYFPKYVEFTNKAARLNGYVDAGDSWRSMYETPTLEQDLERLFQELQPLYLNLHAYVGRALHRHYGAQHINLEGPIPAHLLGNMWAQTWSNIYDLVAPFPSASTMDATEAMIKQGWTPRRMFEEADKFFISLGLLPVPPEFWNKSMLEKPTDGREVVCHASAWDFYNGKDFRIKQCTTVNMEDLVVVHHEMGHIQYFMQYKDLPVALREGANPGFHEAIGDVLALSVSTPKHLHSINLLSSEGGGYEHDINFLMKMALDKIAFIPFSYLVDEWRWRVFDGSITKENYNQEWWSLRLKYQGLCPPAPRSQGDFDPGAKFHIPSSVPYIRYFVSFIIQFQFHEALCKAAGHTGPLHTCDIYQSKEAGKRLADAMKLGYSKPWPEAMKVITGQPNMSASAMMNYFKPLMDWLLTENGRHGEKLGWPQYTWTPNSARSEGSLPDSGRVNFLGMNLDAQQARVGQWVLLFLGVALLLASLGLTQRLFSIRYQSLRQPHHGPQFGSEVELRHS

[5] = biological target: C-C chemokine receptor type 2 (Homo sapiens, UniProt P41597); assay type: cell membranes, CHO-K1, Membrane; settings: cho-k1; further: in other assays of this panel Not Active means under 50% inhibition at 10 µM
Chain of C-C chemokine receptor type 2 (P41597 whole entry): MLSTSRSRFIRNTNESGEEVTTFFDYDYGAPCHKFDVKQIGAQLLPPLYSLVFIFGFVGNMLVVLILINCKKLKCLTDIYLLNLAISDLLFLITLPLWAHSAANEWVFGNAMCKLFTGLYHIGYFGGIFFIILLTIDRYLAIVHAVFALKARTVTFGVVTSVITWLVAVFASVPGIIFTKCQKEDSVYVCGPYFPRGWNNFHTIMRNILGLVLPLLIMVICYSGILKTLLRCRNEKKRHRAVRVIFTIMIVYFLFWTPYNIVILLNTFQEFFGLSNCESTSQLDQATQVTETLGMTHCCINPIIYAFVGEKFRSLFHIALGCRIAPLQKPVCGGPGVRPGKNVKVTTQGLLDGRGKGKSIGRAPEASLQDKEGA

[6] = biological target: T3, Vasoactive intestinal polypeptide receptor 1 (Homo sapiens, UniProt P32241); assay type: cell membranes, Membrane; settings: ht-29; further: in other assays of this panel Not Active means under 50% inhibition at 10 µM
T3 sequence (P32241 whole entry): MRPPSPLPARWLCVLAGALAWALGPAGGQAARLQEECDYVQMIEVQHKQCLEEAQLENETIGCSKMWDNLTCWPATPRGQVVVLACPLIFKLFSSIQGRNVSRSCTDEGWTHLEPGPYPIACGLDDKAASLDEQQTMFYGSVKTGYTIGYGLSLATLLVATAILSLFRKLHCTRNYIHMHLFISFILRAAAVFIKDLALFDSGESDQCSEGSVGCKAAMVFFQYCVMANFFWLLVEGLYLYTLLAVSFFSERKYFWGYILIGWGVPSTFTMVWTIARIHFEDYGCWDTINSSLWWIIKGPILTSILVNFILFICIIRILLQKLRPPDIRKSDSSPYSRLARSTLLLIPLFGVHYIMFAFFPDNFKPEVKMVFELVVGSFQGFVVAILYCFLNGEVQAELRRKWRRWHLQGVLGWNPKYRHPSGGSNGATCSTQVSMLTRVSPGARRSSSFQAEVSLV

[7] = biological target: T4, C-X-C chemokine receptor type 2 (Homo sapiens, UniProt P25025); assay type: cell membranes, Membrane; settings: cho-k1; further: in other assays of this panel Not Active means under 50% inhibition at 10 µM
T4 sequence (P25025 whole entry): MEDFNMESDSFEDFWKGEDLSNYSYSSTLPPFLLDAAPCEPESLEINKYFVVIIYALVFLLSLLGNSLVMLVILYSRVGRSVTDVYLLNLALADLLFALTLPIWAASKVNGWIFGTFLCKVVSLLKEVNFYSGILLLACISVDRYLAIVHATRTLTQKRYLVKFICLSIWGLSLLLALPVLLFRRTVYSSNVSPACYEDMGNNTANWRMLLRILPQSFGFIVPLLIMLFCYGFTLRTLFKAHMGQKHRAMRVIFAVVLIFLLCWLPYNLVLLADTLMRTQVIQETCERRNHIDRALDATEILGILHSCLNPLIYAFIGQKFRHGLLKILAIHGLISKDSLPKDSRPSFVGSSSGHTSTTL

Chain of Melanocortin receptor 5 (P33032 whole entry): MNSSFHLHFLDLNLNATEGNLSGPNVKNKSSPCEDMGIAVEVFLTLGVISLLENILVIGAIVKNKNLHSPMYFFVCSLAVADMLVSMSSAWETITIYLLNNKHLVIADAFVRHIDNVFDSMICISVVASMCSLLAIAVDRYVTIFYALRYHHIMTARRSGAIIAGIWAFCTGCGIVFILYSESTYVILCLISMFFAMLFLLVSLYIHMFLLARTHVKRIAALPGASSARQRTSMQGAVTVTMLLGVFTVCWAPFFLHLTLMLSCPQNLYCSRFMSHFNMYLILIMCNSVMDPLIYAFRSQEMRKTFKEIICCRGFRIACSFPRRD

CC(C)N1CCN(c2ccc(OCC3COC(Cn4cncn4)(c4ccc(Cl)cc4Cl)O3)cc2)CC1 (stereo unspecified) [TERCONAZOLE]
0.418 µM: IC50 ([3]; read-out: IC50)
Not Active: IC50 ([1]; hek293) | IC50 [2] | IC50 [4] | IC50 [5] | IC50 [6] | IC50 [7]
0.061 µM: Ki ([3]; read-out: Ki)

CC(C)(C)NC(=O)[C@@H]1C[C@@H]2CCCC[C@@H]2CN1C[C@@H](O)[C@H](Cc1ccccc1)NC(=O)[C@H](CC(N)=O)NC(=O)c1ccc2ccccc2n1
Not Active: IC50 ([1]; hek293) | IC50 [2] | IC50 ([3]; sf9) | IC50 [4] | IC50 [5] | IC50 [6] | IC50 [7]

SODIUM NITROPRUSSIDE
Not Active: IC50 ([1]; hek293) | Ki ([1]; hek293) | IC50 [2] | Ki [2] | IC50 ([3]; sf9) | Ki ([3]; sf9) | IC50 [4] | Ki [4] | IC50 [5] | Ki [5] | IC50 [6] | Ki [6] | IC50 [7] | Ki [7]

NC[C@H]1CC[C@H](C(=O)O)CC1 [TRANEXAMIC ACID]
Not Active: IC50 ([1]; hek293) | IC50 [2] | IC50 ([3]; sf9) | IC50 [4] | IC50 [5] | IC50 [6] | IC50 [7]

CC/C(=C(\c1ccccc1)c1ccc(OCCN(C)C)cc1)c1ccccc1 [TAMOXIFEN]
Not Active: IC50 [2] | IC50 ([3]; sf9) | IC50 [4] | IC50 [5] | IC50 [6] | IC50 [7]
24.9 µM: Ki ([1]; read-out: Ki)
26.5 µM: IC50 ([1]; read-out: IC50)

N[C@@H]1[C@H]2CN(c3nc4c(cc3F)c(=O)c(C(=O)O)cn4-c3ccc(F)cc3F)C[C@@H]12 [TROVAFLOXACIN]
Not Active: IC50 ([1]; hek293) | IC50 [2] | IC50 ([3]; sf9) | IC50 [4] | IC50 [5] | IC50 [6] | IC50 [7]

CC[C@@H](CO)NC(=O)[C@@H]1C=C2c3cccc4[nH]cc(c34)C[C@H]2N(C)C1 [METHYLERGONOVINE]
Not Active: IC50 ([1]; hek293) | IC50 [2] | IC50 ([3]; sf9) | IC50 [4] | IC50 [5] | IC50 [6] | IC50 [7]

Cc1cccc(N(C)C(=S)Oc2ccc3ccccc3c2)c1 [TOLNAFTATE]
Not Active: IC50 ([1]; hek293) | IC50 [2] | IC50 ([3]; sf9) | IC50 [4] | IC50 [5] | IC50 [6] | IC50 [7]

Cc1oncc1C(=O)Nc1ccc(C(F)(F)F)cc1 [LEFLUNOMIDE]
Not Active: IC50 ([1]; hek293) | IC50 [2] | IC50 ([3]; sf9) | IC50 [4] | IC50 [5] | IC50 [6] | IC50 [7]

Nc1nc2ccc(OC(F)(F)F)cc2s1 [RILUZOLE]
Not Active: IC50 ([1]; hek293) | IC50 [2] | IC50 ([3]; sf9) | IC50 [4] | IC50 [5] | IC50 [6] | IC50 [7]

Cc1c(C)c2c(c(C)c1O)CCC(C)(COc1ccc(CC3SC(=O)NC3=O)cc1)O2 (stereo unspecified) [TROGLITAZONE]
Not Active: IC50 ([1]; hek293) | IC50 [2] | IC50 ([3]; sf9) | IC50 [4] | IC50 [5] | IC50 [6] | IC50 [7]

CCCOc1ccccc1-c1nc2nn[nH]c2c(=O)[nH]1 [ZAPRINAST]
Not Active: IC50 ([1]; hek293) | IC50 [2] | IC50 ([3]; sf9) | IC50 [4] | IC50 [5] | IC50 [6] | IC50 [7]

CC[C@]1(O)C[C@H]2CN(CCc3c([nH]c4ccccc34)[C@@](C(=O)OC)(c3cc4c(cc3OC)N(C=O)[C@H]3[C@@](O)(C(=O)OC)[C@H](OC(C)=O)[C@]5(CC)C=CCN6CC[C@]43[C@@H]65)C2)C1 [VINCRISTINE]
Not Active: IC50 ([1]; hek293) | IC50 [2] | IC50 ([3]; sf9) | IC50 [4] | IC50 [5] | IC50 [6] | IC50 [7]

COc1c(C)c2c(c(O)c1C/C=C(\C)CCC(=O)O)C(=O)OC2 [MYCOPHENOLIC ACID]
Not Active: IC50 ([1]; hek293) | IC50 [2] | IC50 ([3]; sf9) | IC50 [4] | IC50 [5] | IC50 [6] | IC50 [7]

CSc1ccc(/C=C2/C(C)=C(CC(=O)O)c3cc(F)ccc32)cc1 [SULINDAC SULFIDE]
Not Active: IC50 ([1]; hek293) | IC50 [2] | IC50 ([3]; sf9) | IC50 [4] | IC50 [5] | IC50 [6] | IC50 [7]

O=NN(CCCl)C(=O)NC1CCCCC1 [LOMUSTINE]
Not Active: IC50 ([1]; hek293) | IC50 [2] | IC50 ([3]; sf9) | IC50 [4] | IC50 [5] | IC50 [6] | IC50 [7]
